This is an account of results in article PMC6261607, “Novel high–throughput myofibroblast assays identify agonists with therapeutic potential in pulmonary fibrosis that act via EP2 and EP4 receptors” (PLoS ONE, 2018).

Read-outs that look alike come from different tables or passages of the source. Some results are limits rather than exact numbers.

Assay [1] relates to normal human lung fibroblasts (NHLF). Put plainly: Impedance measurement of TGF–β1–induced myofibroblast transition (IPQA), standard assay. As to conditions: 5 ng/ml TGF–β1, compound added with TGF–β1, impedance at t = 20 h post TGF–β1, mean ± SD, read-out: Impedance IC50. Format: cell-based. As to the method:
To measure dynamic cell shape and adhesion changes during fibrotic transdifferentiation, NHLF were seeded at a density of 20,000 cells per well in FGM–2 growth medium (Lonza) containing 100 units / ml of penicillin and 100 μg / ml of streptomycin into E–plates with continued impedance signal measurement (xCELLigence system, Roche Applied Science). After overnight growth, the medium was exchanged for FBM (Lonza) supplemented with 100 units / ml of penicillin and 100 μg / ml of streptomycin and 0.1% faf BSA and cells were starved for 32 h. Compound dilution series were added and myofibroblast transition was induced by adding TGF–β1 at a concentration of 5 ng / ml, followed by continued impedance sampling for up to 48 h. For data analysis, impedance raw traces were normalized to the time point of compound addition and the baseline response (DMSO, non–TGF–β1 treated cells) was subtracted. In some cases, impedance values at defined time points were used to generate concentration–response curves to determine compound potency and efficacy using GraphPad Prism software version 7 (GraphPad Software Inc).

Assay [2] deals with α–SMA protein in NHLF cells. Put plainly: RapidFire MS/MS quantification of α–SMA (IPQA), standard assay. Format: cell-based, human. As to conditions: NHLF, 5 ng/ml TGF–β1, lysed 48 h after TGF–β1, normalized to tubulin, mean ± SD, read-out: MS / MS α–SMA IC50. The method, then: (§1) Cell culture medium was removed and cells were lysed on ice by adding 5 μl / well of pre–cooled protein extraction buffer containing 10 mM Tris–HCl (pH 8.0), 6 M urea and 2 M thiourea and shaking on ice on a plate shaker at 600 rpm for 30 min.
(§2) Cell lysate was transferred to a 96–well polypropylene–PCR–plate. 15 μl / well denaturation buffer (6 M urea, 50 mM ammonium bicarbonate) and 2 μl / well of 50 mM TCEP were added and samples were denatured for 1 h at 60°C using the Veriti 96–well Fast Thermal Cycler System (Applied Biosystem) with a heated lid. Plates were allowed to cool to RT. Subsequently, 2 μl of 100 mM iodoacetamide were added per well to derivatize cysteine residues. Plates were then sealed and vortexed for 2 min in the dark and incubated for 30 min at 37°C in a thermal cycler with a heated lid. 90 μl of 50 mM ammonium bicarbonate pH 7.8 were added, followed by the addition of 10 μl of trypsin at 0.02 μg / ml. Samples were trypsin–digested overnight at 37°C in a thermal cycler with heated lid. […] Samples were desalted under vacuum using an Oasis HLB 96–well (30 μm particle size, 5 mg sorbent / well) reverse phase cartridge according to the manufacturer’s instructions and eluted with 170 μl of 90% acetonitrile, 0.1% formic acid. Samples were dried down with a flow of nitrogen at 40°C, left to cool to RT and re–suspended in 40 μl 5% acetonitrile, 0.1% formic acid on a plate shaker set to 1400 rpm for 5 min. Plates were centrifuged at 4,000 rpm for 10 min and 2 times 12 μl / well of supernatant were transferred into separate 96–well plates (Greiner Bio–One), sealed and stored at 4°C until analyzed by MS / MS.
(§3) Surrogate tryptic peptides were chosen for detection of COL1 (COL1A1), α–SMA (ACTA) and tubulin (TBA1A1) and crude synthetic peptides were purchased from Thermo Fischer. After several rounds of optimization following standard workflows, […] (COL1 / COL1A1), […] (α–SMA / ACTA) and […] LC–MS / MS analysis was performed on a RapidFire™ RF360 system (Agilent Technologies) coupled to an API 5500 (ABSciex) with positive ion electrospray ionization. […] Detection was performed using multiple reaction monitoring (MRM) mode to monitor parent⟶product ion transitions (m / z). […] The source parameters were curtain gas (CUR) nitrogen: 20 psig; collision gas (CAD): 7 psig; ion source gas 1: 50.0 psig; ion source gas 2: 50.0 psig; ion spray voltage (IS): 5500 V; turbo heater temperature (TEM): 600°C; entrance potential (EP): 10V. Peak areas for COL1A1 and ACTA were normalized by dividing by TBA1A peak area.

The test system of assay [3] is normal human lung fibroblasts (NHLF). Put plainly: Phenotypic high-content assay (HCA) of TGF–β1–induced fibroblast–to–myofibroblast differentiation. The assay is classed as cell-based. To be noted: NHLF, 5 ng/ml TGF–β1 for 48 h, compound added with TGF–β1, mean ± SD, read-out: HCA IC50. As to the method: The plate was washed 3 times with starvation medium, e.g. fibroblast basal medium (FBM, Lonza) supplemented with 0.1% faf BSA, 100 units / ml of penicillin and 100 μg / ml of streptomycin and 250 ng / ml amphotericin B, and then starved for 24 h in 30 μl volume. NHLF were differentiated into myofibroblasts by incubation with 5 ng / ml TGF–β1 (from a stock of 20 μg / ml in 4 mM HCl, 1 mg / ml BSA) for 48 h. Compounds were prepared as 5x stocks in starvation medium and added to the starved cells to a final 1x concentration concomitant with TGF–β1 addition. The final DMSO concentration in the assay was 0.6% in all wells. 48 h after TGF–β1 addition, the medium was removed and the cells were fixed in methanol for 10 min at room temperature (RT). After fixation, cells were washed 3 times with 1 x PBS and either stored at 4°C for up to 3 days or further processed. […] Images were acquired on the Opera Phenix confocal high–content screening system (Perkin Elmer) using the 20–x water immersion lens.
DAPI stained nuclei were used to identify cells. α–SMA and FN regions were then identified and mapped to the corresponding nuclei for background correction, cell segmentation and cell feature computation to identify, classify and weigh over 400 features per cell. The computed features (S1 Table) comprise, but are not limited to, granularity, intensity, texture, area, shape and solidity of a cell in both α–SMA–and FN–expressing regions. The 0% compound effect (5 ng / ml TGF–β1) and the 100% compound effect (0 ng / ml TGF–β1) controls, were used to train and validate a support vector machine (SVM), a supervised learning model with associated learning algorithm that, once successfully validated, was applied to every cell in every well of the assayed microtiter plate. The SVM allowed autonomous weighting and classification of the characteristics and thus enabled the classifier to decide which characteristics were most relevant for the differentiation of the cell types. […] The classification of each cell was aggregated to a cell type ratio per well, represented as the computed percentage effect value per well indicative of the degree of myofibroblast differentiation. E.g. 100% equals complete myofibroblast differentiation, 0% indicates a pure fibroblast population without any signs of differentiation.

Assay [4] deals with COL1 protein in NHLF cells. Put plainly: RapidFire MS/MS quantification of COL1 (IPQA), standard assay. Format: cell-based, human. As to conditions: NHLF, 5 ng/ml TGF–β1, lysed 48 h after TGF–β1, normalized to tubulin, mean ± SD, read-out: MS / MS COL1 IC50. The method, then: as §1, §2, §3
In assay [5] the test system is α–SMA protein in TGF–β1–induced NHLF myofibroblasts. The experiment in a line: MS/MS α–SMA, NHLF myofibroblast reversal assay. Format: cell-based, human. As to conditions: Homo sapiens; NHLF pre–stimulated 24 h with 5 ng/ml TGF–β1; representative experiment, S7 Fig D; read-out: IC50, reversal of α–SMA (curve of a single experiment). The method, then:
as §1, §2, §3
(§4) To identify compounds with potential to revert differentiated myofibroblasts to fibroblasts the assay procedures were modified. After 24 h starvation, NHLF cells were stimulated with 5 ng / ml TGF–β1 for 24 h. At t = 24 h TGF–β1 was removed and either vehicle (DMSO) or compounds were added and incubated with the cells for a further 72 h.

In assay [6] the test system is COL1 protein in TGF–β1–induced NHLF myofibroblasts. The experiment in a line: MS/MS COL1, NHLF myofibroblast reversal assay. To be noted: Homo sapiens, Col1; NHLF pre–stimulated 24 h with 5 ng/ml TGF–β1; representative experiment, S7 Fig E; read-out: IC50, reversal of COL1 (curve of a single experiment). The assay is classed as cell-based, human. The method, then: as §1, §2, §3, §4

As for `CN(C)Cc1cccc(N/C(=C2\C(=O)Nc3cc(C(=O)N(C)C)ccc32)c2ccccc2)c1` [BIX 02189], the IC50 in assay [1] stood at 6 µM; in assay [2], 14 µM; in assay [3], 22 µM; in assay [4] it was 6.5 µM.
On to `O=C(Nc1cccc(Nc2ncc(Br)c(NCCc3cnc[nH]3)n2)c1)N1CCCC1` [BX–912], for which the IC50 came out at 7.5 µM in assay [1], 8.6 µM in assay [2], 17 µM in assay [3] and 8.7 µM in assay [4].
In the case of `CCCCCCCC(=O)c1c(O)cc(O)cc1CC(=O)OCC` [Csn–B], the IC50 in assay [1] was greater than 50 µM; in assay [2], greater than 50 µM; in assay [3], 39 µM; in assay [4] it was greater than 50 µM.
Take `Nc1[nH]nc2nnc(-c3c(-c4ccccc4)nn4ccccc34)cc12` [FR180204]: the IC50 in assay [1] is 50 µM; in assay [2] it was 49 µM; in assay [3], greater than 46 µM; in assay [4] it was 36 µM.
With `C=C[C@@]1(C)CC(=O)[C@]2(O)[C@@]3(C)[C@@H](O)CCC(C)(C)[C@@H]3[C@H](O)[C@H](OC(C)=O)[C@@]2(C)O1` [Forskolin], the IC50 was 5.12 µM in assay [5] and 1.73 µM in assay [6].
On to `Cc1ccccc1-n1c(Cn2cnc3c(N)ncnc32)nc2cccc(C)c2c1=O` [IC–87114], for which the IC50 in assay [1] is greater than 5 µM; in assay [2], greater than 5 µM; in assay [3], 44 µM; in assay [4], 4.9 µM.
As for `CC(C)NC[C@@H](C(=O)N1CCN(c2ncnc3c2[C@H](C)C[C@H]3O)CC1)c1ccc(Cl)cc1` [Ipatasertib], the IC50 in assay [1] (Fibroblast) was 43 µM; in assay [2] (Homo sapiens), 25 µM; in assay [3] (Homo sapiens, Fibroblast, 48 h) it was 22 µM; in assay [4] (Homo sapiens, Col1), greater than 50 µM.
On to `O=c1cc(N2CCOCC2)oc2c(-c3ccccc3)cccc12` [LY294002], for which the IC50 in assay [1] (Fibroblast) was 13 µM; in assay [2] (Homo sapiens), 27 µM; in assay [3] (Homo sapiens, Fibroblast, 48 h) it was 2.4 µM; in assay [4] (Homo sapiens, Col1, 48 h), 45 µM.
For `O=C1c2ccc(Nc3ccc(F)cc3F)cc2CCc2ccc(OC[C@H](O)CO)cc21` [L–skepinone], the IC50 in assay [1] (Fibroblast) is 5 µM; in assay [2] (Homo sapiens), 0.96 ± 0.44 µM; in assay [3] (Homo sapiens, Fibroblast, 48 h), 23 µM; in assay [4] (Homo sapiens, Col1, 48 h), 1.5 µM.
For `COc1cccc(-c2cc(=O)c3ccccc3o2)c1N` [PD98059], the IC50 is 19 µM in assay [1], 50 µM in assay [2], greater than 46 µM in assay [3] and greater than 50 µM in assay [4].
On to `Cn1c(=O)c(Oc2ccc(F)cc2F)cc2cnc(NC(CCO)CCO)nc21` [Pamapimod], for which the IC50 in assay [1] (Fibroblast) was 19 µM; in assay [2] (Homo sapiens), 34 µM; in assay [3] (Homo sapiens, Fibroblast, 48 h), greater than 46 µM; in assay [4] (Homo sapiens, Col1) it was greater than 50 µM.
For the compound `O=C(NCc1cccc(O)c1)Nc1nc(-c2ccncc2)cs1` [RKI 1447], the IC50 in assay [1] was 8.4 µM; in assay [2], 0.15 ± 0.022 µM; in assay [3], 4.3 µM; in assay [4], 12.2 µM.
Turning to `Cc1cccc(-c2[nH]c(C(C)(C)C)nc2-c2ccc3nccnc3c2)n1` [SB525334], the IC50 in assay [1] is 0.12 ± 0.025 µM; in assay [2], 0.09 ± 0.005 µM; in assay [3], 2.5 µM; in assay [4], 0.38 ± 0.11 µM.
With `Oc1c2ccccc2c2c3c(cccc13)N=N2` [SP600125], the IC50 in assay [1] (Fibroblast) was 48.5 µM; in assay [2] (Homo sapiens), 38 µM; in assay [3] (Homo sapiens, Fibroblast, 48 h), greater than 46 µM; in assay [4] (Homo sapiens, Col1), 36 µM.
With `CC[C@@H](C(=O)[C@@H](C)[C@@H](O)[C@H](C)[C@@H]1O[C@@H]([C@@H](CC)C(=O)O)CC[C@@H]1C)[C@H]1O[C@]2(C=C[C@@H](O)[C@]3(CC[C@@](C)([C@H]4CC[C@](O)(CC)[C@H](C)O4)O3)O2)[C@H](C)C[C@@H]1C` [Salinomycin], the IC50 in assay [1] (Fibroblast) is 1.5 µM; in assay [2] (Homo sapiens) it was 0.29 ± 0.3 µM; in assay [3] (Homo sapiens, Fibroblast), 15.8 µM; in assay [4] (Homo sapiens, Col1), 1.2 µM.
As for `CCOc1cc(N2CCC(O)CC2)ccc1Nc1ncc2c(n1)N(C)c1ccccc1C(=O)N2C` [XMD 8–92], the IC50 in assay [1] turned out to be 4.4 µM; in assay [2] it was 2.4 µM; in assay [3], 12 µM; in assay [4] it was 5.4 µM.
